Measurements as given in publication PMC5377235, “A new target region for changing the substrate specificity of amine transaminases” (Scientific Reports, 2015).

Tests used:
ATA-117-Rd11 = target: T1, ATA-117-Rd11 (Arthrobacter sp. KNK168, UniProt F7J696, S8P/Y60F/L61Y/H62T/V65A/V69T/D81G/M94I/I96L/F122M/S124T/S126T/G136F/Y150S/V152C/A169L/V199I/A209L/G215C/G217N/S223P/L269P/L273Y/T282S/A284G/P297S/S321P); test: X-ray crystal structure, […] Å; assay type: binding; details: covalent; internal aldimine
T1 construct: gene TAS; synthetic gene, pET28a N-His tag, thrombin cleaved; E. coli; homodimer

Ab-R-ATA [1] = target: T2, Ab-R-ATA (Arthrobacter sp. KNK168, UniProt F7J696); test: HPLC of acetophenone formed, initial kinetics; assay type: biochemical; details: 10 mM (R)-1-phenylethylamine as amino donor, 0.5 mM PLP, 100 mM Tris-HCl pH 8.5, 30 °C
T2 construct: gene TAS; full length, 330 amino acids, no tag, pUCNT vector, E. coli Rosetta (DE3); homodimer, active site formed with loop 129-145 of the other protomer
Text: (§1) HPLC of acetophenone formed, initial kinetics on Ab-R-ATA | The kcat/Km values for pyruvate of the R138A and the R138Q mutants

Ab-R-ATA [2] = target: T3, Ab-R-ATA (Arthrobacter sp. KNK168, UniProt F7J696, R138Q, form not given); test: HPLC of acetophenone formed, initial kinetics; assay type: biochemical; details: 10 mM (R)-1-phenylethylamine as amino donor, 0.5 mM PLP, 100 mM Tris-HCl pH 8.5, 30 °C
T3 construct: gene TAS; full length, 330 amino acids, no tag, pUCNT vector, E. coli Rosetta (DE3); homodimer, active site formed with loop 129-145 of the other protomer
Text: as §1

Compound: Cc1ncc(COP(=O)(O)O)c(C=O)c1O [PLP]
- X-ray crystal structure, 2.20 Å (ATA-117-Rd11): The cofactor PLP in the active site is shown as green sticks

Compound: CC(=O)C(=O)O [pyruvate]
- Km (Ab-R-ATA [1]): 5.8 ± 0.1 mM
- Km (Ab-R-ATA [2]): 66 ± 3 mM
